Experimental data from US10676446B2, “Bicyclic quinazolinone derivatives” (Hoffmann-La Roche Inc., priority 2015, dated 2020).
pIC50: −log10 of the molar value.

Target: human ATX (autotaxin, ENPP2), His-tagged (Homo sapiens (Human), UniProt Q13822)
Assay: Human ATX enzyme inhibition assay (fluorescence quenching, MR121 substrate)
Format: biochemical
Details: 30 nM ATX, 1 μM MR121 substrate, 30° C., pH 8.0
Summary of the method: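 His-tagged human ATX (30 nM final) preincubated 15 min at 30 °C with serially diluted compound in Tris-HCl pH 8.0 buffer with Ca2+, Mg2+ and 0.01% Triton X-100. MR121-labelled fluorescence-quenched substrate then added (1 μM final) for a further 15 min at 30 °C; fluorescence read-out.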

Row | Compound | pIC50
1 | CCN(CC)C(=O)CN1CCN(c2ccc3ncn(CC(=O)N(C)Cc4ccc(Cl)c(Cl)c4)c(=O)c3c2)CC1 [Example 110] | 7.47
2 | CC(=O)N1CCN(c2ccc3ncn(CC(=O)NCc4cc(Cl)c(Cl)cn4)c(=O)c3c2)CC1 [Example 41] | 7.68
3 | O=C(Cn1cnc2ccc(N3CCN(S(=O)(=O)C4CCCC4)CC3)cc2c1=O)NCc1ccc(Cl)c(Cl)c1 [Example 89] | 7.70
4 | CC(C)OCC(=O)N1CCC(c2ccc3ncn(CC(=O)N(C)Cc4ccc(C#N)c(Cl)c4)c(=O)c3c2)CC1 [Example 135] | 9.00
5 | CC(=O)N1CCC(c2ccc3ncn(CC(=O)NCc4ccc(F)c(C(F)(F)F)c4)c(=O)c3c2)CC1 [Example 162] | 7.36
6 | CN(Cc1ccc(Cl)c(Cl)c1)C(=O)Cn1cnc2ccc(C3CCN(C(=O)C4(O)CC4)CC3)cc2c1=O [Example 179] | 6.81
7 | CC(=O)N1CCC(c2cc3c(=O)n(CC(=O)N(C)Cc4ccc(C#N)c(Cl)c4)cnc3cn2)CC1 [Example 189, 2-[6-(1-Acetylpiperidin-4-yl)-4-oxopyrido[3,4-d]pyrimidin-3-yl]-N-[(3-chloro-4-cyanophenyl)methyl]-N-methylacetamide] | 9.00
8 | CN(Cc1ccc(Cl)c(Cl)c1)C(=O)Cn1cnc2ccc(N3CCN(C(=O)C4CC(F)C4)CC3)cc2c1=O (stereo not shown) [Example 74] | 8.15
9 | C[C@@H](O)C(=O)N1CCC(c2ccc3ncn(CC(=O)N(C)Cc4ccc(C#N)c(Cl)c4)c(=O)c3c2)CC1 [Example 156] | 6.25
10 | CC(=O)N1CCN(c2ccc3ncn(CC(=O)NCc4ccc(C(F)(F)F)cc4)c(=O)c3c2)CC1 [Example 17] | 6.86
11 | COC1CC(C(=O)N2CCN(c3ccc4ncn(CC(=O)N(C)Cc5ccc(Cl)c(Cl)c5)c(=O)c4c3)CC2)C1 (stereo not shown) [Example 78] | 8.05
12 | CC(=O)N1CCC(c2ccc3ncn(CC(=O)NCc4cc(Cl)cc(Cl)c4)c(=O)c3c2)CC1 [Example 164] | 7.60
13 | CC(=O)N1CCN(c2ccc3ncn(CC(=O)N(CCC(=O)O)Cc4ccc(Cl)c(Cl)c4)c(=O)c3c2)CC1 [Example 54, 3-[[2-[6-(4-Acetylpiperazin-1-yl)-4-oxoquinazolin-3-yl]acetyl]-[(3,4-dichlorophenyl)methyl]amino]propanoic acid] | 6.08
14 | CC(=O)N1CCC(c2ccc3ncn(CC(=O)N(C)Cc4ccc(C#N)c(F)c4)c(=O)c3c2)CC1 [Example 127] | 8.05
15 | NS(=O)(=O)CC(=O)N1CCN(c2ccc3ncn(CC(=O)NCc4ccc(Cl)c(Cl)c4)c(=O)c3c2)CC1 [Example 71] | 7.59
16 | CN(Cc1ccc(Cl)c(Cl)c1)C(=O)Cn1cnc2ccc(C3CCN(C(=O)C4CCOC4)CC3)cc2c1=O (stereo not shown) [Example 182] | 8.10
17 | CNC(=O)CC(NC(=O)Cn1cnc2ccc(N3CCN(C(C)=O)CC3)cc2c1=O)c1ccc(C(F)(F)F)cc1 (stereo not shown) [Example 4] | 6.77
18 | CN(Cc1ccc(Cl)c(Cl)c1)C(=O)Cn1cnc2ccc(N3CCN(S(=O)(=O)CC4CCC4)CC3)cc2c1=O [Example 92] | 8.15
19 | CN(Cc1ccc(Cl)c(Cl)c1)C(=O)Cn1cnc2ccc(C3CCN(C(=O)C4(O)CCC4)CC3)cc2c1=O [Example 176] | 7.34
20 | CN(Cc1ccc(C#N)c(Cl)c1)C(=O)Cn1cnc2ccc(C3CCN(S(C)(=O)=O)CC3)cc2c1=O [Example 145, N-[(3-Chloro-4-cyanophenyl)methyl]-N-methyl-2-[6-(1-methylsulfonylpiperidin-4-yl)-4-oxoquinazolin-3-yl]acetamide] | 7.09
21 | CN(Cc1ccc(C#N)c(Cl)c1)C(=O)Cn1cnc2ccc(C3CCN(C(=O)C4CCC4)CC3)cc2c1=O [Example 137] | 8.70
22 | CC(=O)N1CCC(c2ccc3ncn(CC(=O)N(C)Cc4ccc(C#N)c(Cl)c4)c(=O)c3c2)CC1 [Example 125] | 8.15
23 | CC(=O)N1CCN(c2ccc3ncn(CC(=O)NCc4ccc(C#N)cc4OCC(F)(F)F)c(=O)c3c2)CC1 [Example 33] | 6.61
24 | CC(=O)N1CCN(c2ccc3ncn(CC(=O)NC(CC(=O)Nc4ccccc4)c4ccc(Cl)cc4)c(=O)c3c2)CC1 (stereo not shown) [Example 3] | 6.70
25 | CC(=O)N1CCN(c2ccc3ncn(CC(=O)NCCc4ccc(Cl)c(Cl)c4)c(=O)c3c2)CC1 [Example 49] | 6.75
